According to patent US5561133A, “Thymidylate synthase inhibiting quinazolinones” (British Technology Group Limited, priority 1992, dated 1996):

What was measured:
[1] = particularly liver and kidneys; cited from earlier work
[2] = tested on: human breast,ovarian and liver cancer; conditions: clinical, humans; cited from earlier work
L1210 cell line = assay: inhibition of growth of the leukaemia cell line L1210 in cell culture; assay type: cell-based; conditions: Mus musculus, read-out: IC50 against the L1210 cell line
From the text: (b) An assay which determines the ability of a test compound to inhibit the growth of the leukaemia cell line L1210 in cell culture. The test may be similar to that described in UK Patent Specification No. 2065653B; and […]

MCF-7 cell line = assay: inhibition of growth of the human breast cancer cell line MCF-7 in cell culture; assay type: cell-based; conditions: MCF7, MCF-7 cell culture, read-out: IC50 against the MCF-7 cell line
From the text: (c) An assay which determines the ability of a test compound to inhibit the growth of the human breast cancer cell line MCF-7 in cell culture. The test may be similar to that described by Lippman et al (Cancer Res., 1976, 36, 4595).

Row | IC50 (L1210 cell line) [µM] | IC50 (MCF-7 cell line) [µM] | Compound | toxicity in humans [1] | activity against human breast, ovarian and liver cancer [2]
1 |  |  | C#CCN(Cc1ccc2nc(N)[nH]c(=O)c2c1)c1ccc(C(=O)N[C@@H](CCC(=O)O)C(=O)O)cc1 [CB3717] | symptoms of toxicity in humans, particularly in relation to the liver and kidneys | promising activity
2 | 0.24 | 0.3 | C#CCN(Cc1ccc2nc(C)[nH]c(=O)c2c1)c1ccc(C(=O)N[C@@H](CCC(=O)N(C)[C@@H](CCC(=O)O)C(=O)O)C(=O)O)cc1 [Example 1, N-p-[N-(3,4-Dihydro-2-methyl-4-oxoquinazolin-6-ylmethyl)-N-(prop-2-ynyl)amino]benzoyl-L-γ-glutamyl-N-methyl-L-glutamic acid] |  | 
